Data set [1] has as its system IFN-a/Jak1 Tyk2. Briefly: Co-stimulation assay in lysed whole blood: IFNa (JAK1/TYK2) stimulated STAT1 phosphorylation. The data set is classed as cell-based. The conditions noted are these: 100 ng/mL IFNa (with 10 ng/mL GM-CSF), pSTAT by flow cytometry. The gist of the method:
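Lysed human whole blood (RBC-lysed, resuspended in cRPMI) pre-incubated with compound 1 h at 37 °C, then stimulated 20 min with IFNa 100 ng/mL plus GM-CSF 10 ng/mL (final). Fixed, permeabilised, stained for pSTAT1 (PE) and pSTAT5 (AF488); flow cytometry read-out, ≥5,000–10,000 cells acquired.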
A general note: In flow cytometry, cells or beads pass a laser one at a time.

Data set [2] in a line: Human liver microsome stability assay. The data set is classed as in vitro ADME. The conditions noted are these: 0.5 mg/mL human liver microsomes, 37° C., pH 7.4; urea versus corresponding amide. The procedure: The microsome stability assay was carried out in 96-well microtiter plates at 37° C. Reaction mixtures (25 μL) contained a final concentration of 1 µM test compound, 0.5 mg/mL human liver microsomes protein, and 1 mM NADPH and/or 1 mM UDPGA (with alamethicin) in 100 mM potassium phosphate, pH 7.4 buffer with 3 mM MgCl2. At each of the time points (for example, 0, 15, 30, and 60 minutes), 150 μL of quench solution (100% acetonitrile with 0.1% formic acid) with internal standard was transferred to each well. Besides the zero minute controls, mixtures containing the same components except the NADPH were also prepared as the negative control. Verapamil was included as a positive control to verify assay performance. Plates were sealed, vortexed, and centrifuged at 4° C. for 15 minutes at 4000 rpm. The supernatant was transferred to fresh plates for LC/MS/MS analysis. Comparison data for microsome stability of urea compounds described herein versus the corresponding amide compounds are shown in Table 1.
Background: Liver microsomes are vesicles of endoplasmic reticulum, rich in cytochrome P450 enzymes.

The nature of data set [3]: Rat pharmacokinetics (PK). In kind it is in vivo. The conditions noted are these: IV group and PO group, route of the Cmax not given, urea versus corresponding amide. The procedure:
Rat PK experiments were performed with an IV group and PO group included, with 3 rats per group. The formulation was solution for IV group and either solution or suspension formulation for the oral group(s). Plasma samples were harvested with K2EDTA as anticoagulant at 0.08, 0.25, 0.5, 1, 2, 4, 8, 12 and 24 hours for the IV group and at 0.25, 0.5, 1, 2, 4, 6, 8, 12 and 24 hours for the PO group, and analyzed by fit for purpose LC-MS/MS method. Non-compartmental analysis module in Phoenix WinNonlin® (Version 8.0) was used to assess the pharmacokinetic parameters. Maximum concentration (Cmax) were taken from the observed values.

By IC50 is commonly meant the point on the concentration scale where inhibition reaches its midpoint. Low readings indicate inhibition by little substance, high ones a need for much substance. As usually defined, the half-life is the time needed for the level to fall by half in the phase considered. Higher therefore signals slow loss. As a reminder, the Cmax is the highest concentration seen after dosing.

Like-named read-outs stand apart in the source and are kept apart here.

In data set [1] (Homo sapiens, 20 min), `CNC(=O)Nc1cnn2c(NC)cc(Nc3cccc4c3N(C)CCO4)nc12` [Compound 163, 1-methyl-3-(5-((4-methyl-3,4-dihydro-2H-benzo[b][1,4]oxazin-5-yl)amino)-7-(methylamino)pyrazolo[1,5-a]pyrimidin-3-yl)urea] had an IC50 of 1000 to 10000 nM.
Compound `CNC(=O)Nc1cnn2c(NC)cc(Nc3cccnc3OC)nc12` [Compound 164, 1-(5-((2-methoxypyridin-3-yl)amino)-7-(methylamino)pyrazolo[1,5-a]pyrimidin-3-yl)-3-methylurea] displayed an IC50 in data set [1] (Homo sapiens, 20 min) of less than 1000 nM.
On to `CNC(=O)Nc1cnn2c(NC)cc(Nc3ccccc3-c3ccccc3)nc12` [Compound 165, 1-(5-([1,1′-biphenyl]-2-ylamino)-7-(methylamino)pyrazolo[1,5-a]pyrimidin-3-yl)-3-methylurea], for which the IC50 in data set [1] (Homo sapiens, 20 min) was not below 10000 nM.
In data set [1] (Homo sapiens, 20 min), `CNC(=O)Nc1cnn2c(NC)cc(Nc3cccc4nccnc34)nc12` [Compound 166, 1-methyl-3-(7-(methylamino)-5-(quinoxalin-5-ylamino)pyrazolo[1,5-a]pyrimidin-3-yl)urea] registered an IC50 of less than 1000 nM.
The same measure, in the same setting: as for `CNC(=O)Nc1cnn2c(NC)cc(NC(=O)c3ccccc3)nc12` [Compound 167, N-(7-(methylamino)-3-(3-methylureido)pyrazolo[1,5-a]pyrimidin-5-yl)benzamide], the figure is 1000 to 10000 nM; as for `CNC(=O)Nc1cnn2c(NC)cc(Nc3ccccc3OC(F)(F)F)nc12` [Compound 168, 1-methyl-3-(7-(methylamino)-5-((2-(trifluoromethoxy)phenyl)amino)pyrazolo[1,5-a]pyrimidin-3-yl)urea], 1000 to 10000 nM; as for `CNC(=O)Nc1cnn2c(NC)cc(Nc3cccc4c3OCCCO4)nc12` [Compound 169, 1-(5-((3,4-dihydro-2H-benzo[b][1,4]dioxepin-6-yl)amino)-7-(methylamino)pyrazolo[1,5-a]pyrimidin-3-yl)-3-methylurea], less than 1000 nM.
Still for that read-out and setting: as for `CNC(=O)Nc1cnn2c(NC)cc(Nc3cccc4c3CCCC4)nc12` [Compound 170, 1-methyl-3-(7-(methylamino)-5-((5,6,7,8-tetrahydronaphthalen-1-yl)amino)pyrazolo[1,5-a]pyrimidin-3-yl)urea], the figure is 1000 to 10000 nM.
With `CNc1cc(Nc2cccnc2OC(F)F)nc2c(NC(=O)N[C@@H]3C[C@@H]3F)cnn12` [Compound 171, 1-(5-((2-(difluoromethoxy)pyridin-3-yl)amino)-7-(methylamino)pyrazolo[1,5-a]pyrimidin-3-yl)-3-((1R,2S)-2-fluorocyclopropyl)urea], the IC50 in data set [1] (Homo sapiens, 20 min) fell in the range of 1000 to 10000 nM.
Regarding `CNc1cc(Nc2cccc3c2OCCO3)nc2c(NC(=O)N[C@@H]3C[C@@H]3F)c(C)nn12` [Compound 172, 1-(5-((2,3-dihydrobenzo[b][1,4]dioxin-5-yl)amino)-2-methyl-7-(methylamino)pyrazolo[1,5-a]pyrimidin-3-yl)-3-((1R,2S)-2-fluorocyclopropyl)urea], the half-inhibitory concentration (IC50) in data set [1] (Homo sapiens, 20 min) is not below 10000 nM.
In turn, `CNc1cc(Nc2c(F)ccc3c2OCCO3)nc2c(NC(=O)NCC#N)cnn12` [Compound 174, 1-(cyanomethyl)-3-(5-((6-fluoro-2,3-dihydrobenzo[b][1,4]dioxin-5-yl)amino)-7-(methylamino)pyrazolo[1,5-a]pyrimidin-3-yl)urea] registered an IC50 in data set [1] (lysed human whole blood, 20 minutes) not below 10000 nM.
On to `CNc1cc(Nc2c(F)ccc3c2OCCO3)nc2c(NC(=O)N[C@@H]3C[C@@H]3F)cnn12` [Compound 175, 1-(5-((6-fluoro-2,3-dihydrobenzo[b][1,4]dioxin-5-yl)amino)-7-(methylamino)pyrazolo[1,5-a]pyrimidin-3-yl)-3-((1R,2S)-2-fluorocyclopropyl)urea], for which the IC50 in data set [1] (Homo sapiens, 20 min) is not below 10000 nM.
In turn, `CNc1cc(Nc2cc(F)cc3c2OCCO3)nc2c(NC(=O)NCCC(F)F)cnn12` [Compound 178, 1-(3,3-difluoropropyl)-3-(5-((7-fluoro-2,3-dihydrobenzo[b][1,4]dioxin-5-yl)amino)-7-(methylamino)pyrazolo[1,5-a]pyrimidin-3-yl)urea] came in with an IC50 in data set [1] (Homo sapiens, 20 min) of less than 1000 nM.
As to `CNc1cc(Nc2cccc3c2OCCO3)nc2c(NC(=O)NCCC(F)F)cnn12` [Compound 179, 1-(3,3-difluoropropyl)-3-(5-((2,3-dihydrobenzo[b][1,4]dioxin-5-yl)amino)-7-(methylamino)pyrazolo[1,5-a]pyrimidin-3-yl)urea], in data set [1] (Homo sapiens, 20 min), the IC50 is less than 1000 nM.
Take `CNc1cc(Nc2cc(F)cc3c2OCCO3)nc2c(NC(=O)NCC3(C#N)CC3)cnn12` [Compound 180, 1-((1-cyanocyclopropyl)methyl)-3-(5-((7-fluoro-2,3-dihydrobenzo[b][1,4]dioxin-5-yl)amino)-7-(methylamino)pyrazolo[1,5-a]pyrimidin-3-yl)urea]: the IC50 in data set [1] (Homo sapiens, 20 min) was not below 10000 nM.
Consider `[2H]C([2H])([2H])Nc1cc(Nc2cc(F)cc3c2OC([2H])([2H])C([2H])([2H])O3)nc2c(NC(=O)N[C@@H]3C[C@@H]3F)cnn12` [Compound 181, 1-(5-((7-fluoro-2,3-dihydrobenzo[b][1,4]dioxin-5-yl-2,2,3,3-d4)amino)-7-((methyl-d3)amino)pyrazolo[1,5-a]pyrimidin-3-yl)-3-((1R,2S)-2-fluorocyclopropyl)urea], for which the IC50 in data set [1] (Homo sapiens, 20 min) is less than 1000 nM.
On the same count and under the same terms, for `[2H]C1([2H])Oc2cc(F)cc(Nc3cc(NC)n4ncc(NC(=O)N[C@@H]5C[C@@H]5F)c4n3)c2OC1([2H])[2H]` [Compound 182, 1-(5-((7-fluoro-2,3-dihydrobenzo[b][1,4]dioxin-5-yl-2,2,3,3-d4)amino)-7-(methylamino)pyrazolo[1,5-a]pyrimidin-3-yl)-3-((1R,2S)-2-fluorocyclopropyl)urea] the value was less than 1000 nM.
On the same count and under the same terms, as for `CNc1cc(Nc2cccc3c2OCCC3=O)nc2c(NC(=O)N[C@@H]3C[C@@H]3F)cnn12` [Compound 183, 1-((1R,2S)-2-fluorocyclopropyl)-3-(7-(methylamino)-5-((4-oxochroman-8-yl)amino)pyrazolo[1,5-a]pyrimidin-3-yl)urea], the figure is less than 1000 nM; as for `CNc1cc(Nc2cccc3c2OCCC3(F)F)nc2c(NC(=O)N[C@@H]3C[C@@H]3F)cnn12` [Compound 184, 1-(5-((4,4-difluorochroman-8-yl)amino)-7-(methylamino)pyrazolo[1,5-a]pyrimidin-3-yl)-3-((1R,2S)-2-fluorocyclopropyl)urea], 1000 to 10000 nM; as for `CNc1cc(Nc2cc(F)cc3c2OC[C@H](CO)O3)nc2c(NC(=O)N[C@@H]3C[C@@H]3F)cnn12` [Compound 185, 1-(5-(((S)-7-fluoro-2-(hydroxymethyl)-2,3-dihydrobenzo[b][1,4]dioxin-5-yl)amino)-7-(methylamino)pyrazolo[1,5-a]pyrimidin-3-yl)-3-((1R,2S)-2-fluorocyclopropyl)urea], 1000 to 10000 nM.
On the same count and under the same terms, as for `CNc1cc(Nc2cc(F)cc3c2OCCO3)nc2c(NC(=O)N[C@@H]3C[C@H]3F)cnn12` [Compound 187, 1-(5-((7-fluoro-2,3-dihydrobenzo[b][1,4]dioxin-5-yl)amino)-7-(methylamino)pyrazolo[1,5-a]pyrimidin-3-yl)-3-((1R,2R)-2-fluorocyclopropyl)urea], the figure is 1000 to 10000 nM.
`CNc1cc(Nc2cccc3c2OCCO3)nc2c(NC(=O)NC3CC3)cnn12` [drawing 277]: in data set [2], the half-life was more than 2 h.
The compound `CNc1cc(Nc2cccc3c2OCCO3)nc2c(C(=O)NC3CC3)cnn12` [drawing 278, reference compound] gave a half-life in data set [2] of 0.317 h.
Consider `CNc1cc(Nc2cc(F)cc3c2OCCO3)nc2c(NC(=O)N[C@@H]3C[C@@H]3F)cnn12` [drawing 279], for which the half-life in data set [2] is more than 2 h.
Same read-out and setting: for `CNc1cc(Nc2cc(F)cc3c2OCCO3)nc2c(C(=O)N[C@@H]3C[C@@H]3F)cnn12` [drawing 280, reference compound] the value was 1 h; for `CNc1cc(Nc2cccc3c2OCCO3)nc2c(NC(=O)NC3CC(O)C3)cnn12` (centres unmarked) [drawing 281], more than 2 h; for `CNC(=O)Nc1cnn2c(NC)cc(Nc3cc(F)cc4c3OCCO4)nc12` [drawing 283], more than 2 h.
As for `CNc1cc(Nc2cccc3c2OCCO3)nc2c(NC(=O)N[C@@H]3C[C@@H]3F)cnn12` [drawing 285], the Cmax in data set [3] (rat, plasma, read-out: Cmax) amounted to 1690 ng/mL.
On to `CNc1cc(Nc2cccc3c2OCCO3)nc2c(NC(=O)NC3CCC3)cnn12` [drawing 287], for which the Cmax in data set [3] (rat plasma) is on record as 5,000 ng/mL.
On the same count and under the same terms, for `CNc1cc(Nc2cccc3c2OCCO3)nc2c(NC(=O)NC3CCC3)cnn12` [drawing 289] the value was 1,800 ng/mL.
In turn, `CNc1cc(Nc2cccc3c2OCCO3)nc2c(C(=O)NC3CC(O)C3)cnn12` (centres unmarked) [reference compound] yielded a half-life in data set [2] of 0.3 h.
In data set [2], `CNC(=O)c1cnn2c(NC)cc(Nc3cc(F)cc4c3OCCO4)nc12` [reference compound] came in with a half-life of less than 0.833 h.

The record behind these values is US11753411B2, “Substituted pyrazolo[1,5-a]pyrimidines as TYK2 pseudokinase ligands” (Ventyx Biosciences, Inc., priority 2019, dated 2023).
